Key:
Escherichia coli [1] = experiment: Antibacterial activity against Escherichia coli MG1655 harboring pRecA-lux assessed as maximum induction factor at 10^-11 M after 120 mins by luminometric analysis; assay type: functional, K-12 substr. MG1655
Escherichia coli [2] = experiment: Antibacterial activity against Escherichia coli MG1655 harboring pRecA-lux assessed as maximum induction factor at 10^-12 M after 120 mins by luminometric analysis; assay type: functional, K-12 substr. MG1655
Escherichia coli [3] = experiment: Antibacterial activity against Escherichia coli MG1655 harboring pIbpA-lux assessed as maximum induction factor at 10^-12 M after 120 mins by luminometric analysis; assay type: functional, K-12 substr. MG1655
Escherichia coli [4] = experiment: Antibacterial activity against Escherichia coli MG1655 harboring pIbpA-lux assessed as maximum induction factor at 10^-13 M after 120 mins by luminometric analysis; assay type: functional, K-12 substr. MG1655
Escherichia coli [5] = experiment: Antibacterial activity against Escherichia coli MG1655 harboring pSoxS-lux assessed as maximum induction factor at 10^-14 M after 120 mins by luminometric analysis; assay type: functional, K-12 substr. MG1655
Escherichia coli [6] = experiment: Antibacterial activity against Escherichia coli MG1655 harboring pRecA-lux assessed as maximum induction factor at 10^-14 M after 120 mins by luminometric analysis; assay type: functional, K-12 substr. MG1655
Escherichia coli [7] = experiment: Antibacterial activity against Escherichia coli MG1655 harboring pColD-lux assessed as maximum induction factor at 10^-14 M after 120 mins by luminometric analysis; assay type: functional, K-12 substr. MG1655
[8] = Activation of quorum sensing system luxR in Escherichia coli MG1655 harboring pVFR1-lux assessed as maximum induction factor at 10^-14 M after 120 mins by luminometric analysis; conditions: Escherichia coli str. K-12 substr. MG1655
Vibrio sp. [9] = experiment: Antibacterial activity against Vibrio aqamarinus VKPM B-11245 assessed as toxicity index at 10^-3 M measured for 2 hrs by luminometric analysis; assay type: functional
Vibrio sp. [10] = experiment: Antibacterial activity against Vibrio aqamarinus VKPM B-11245 assessed as toxicity index at 10^-4 M measured for 2 hrs by luminometric analysis; assay type: functional
Vibrio sp. [11] = experiment: Antibacterial activity against Vibrio aqamarinus VKPM B-11245 assessed as toxicity index at 10^-6 M measured for 2 hrs by luminometric analysis; assay type: functional
Vibrio sp. [12] = experiment: Antibacterial activity against Vibrio aqamarinus VKPM B-11245 assessed as toxicity index at 10^-9 M measured for 2 hrs by luminometric analysis; assay type: functional
Vibrio sp. [13] = experiment: Antibacterial activity against Vibrio aqamarinus VKPM B-11245 assessed as toxicity index at 10^-11 M measured for 2 hrs by luminometric analysis; assay type: functional
Vibrio sp. [14] = experiment: Antibacterial activity against Vibrio aqamarinus VKPM B-11245 assessed as toxicity index at 10^-12 M measured for 2 hrs by luminometric analysis; assay type: functional
Vibrio sp. [15] = experiment: Antibacterial activity against Vibrio aqamarinus VKPM B-11245 assessed as toxicity index at 10^-13 M measured for 2 hrs by luminometric analysis; assay type: functional
Escherichia coli [16] = experiment: Antibacterial activity against Escherichia coli MG1655 harboring pXen7 assessed as toxicity index at 10^-3 M measured for 2 hrs by luminometric analysis; assay type: functional, K-12 substr. MG1655
Escherichia coli [17] = experiment: Antibacterial activity against Escherichia coli MG1655 harboring pXen7 assessed as toxicity index at 10^-7 M measured for 2 hrs by luminometric analysis; assay type: functional, K-12 substr. MG1655
Escherichia coli [18] = experiment: Antibacterial activity against Escherichia coli MG1655 harboring pXen7 assessed as toxicity index at 10^-8 M measured for 2 hrs by luminometric analysis; assay type: functional, K-12 substr. MG1655
Escherichia coli [19] = experiment: Antibacterial activity against Escherichia coli MG1655 harboring pXen7 assessed as toxicity index at 10^-9 M measured for 2 hrs by luminometric analysis; assay type: functional, K-12 substr. MG1655
Escherichia coli [20] = experiment: Antibacterial activity against Escherichia coli MG1655 harboring pXen7 assessed as toxicity index at 10^-14 M measured for 2 hrs by luminometric analysis; assay type: functional, K-12 substr. MG1655
Escherichia coli [21] = experiment: Antibacterial activity against Escherichia coli MG1655 harboring pRecA-lux assessed as maximum induction factor at 10^-3 M after 120 mins by luminometric analysis; assay type: functional, K-12 substr. MG1655
Escherichia coli [22] = experiment: Antibacterial activity against Escherichia coli MG1655 harboring pRecA-lux assessed as maximum induction factor at 10^-4 M after 120 mins by luminometric analysis; assay type: functional, K-12 substr. MG1655
[23] = Activation of quorum sensing system luxR in Escherichia coli MG1655 harboring assessed as maximum induction factor at 10^-4 M after 120 mins by luminometric analysis; conditions: Escherichia coli str. K-12 substr. MG1655
Escherichia coli [24] = experiment: Antibacterial activity against Escherichia coli MG1655 harboring pGrpE-lux assessed as maximum induction factor at 10^-5 M after 120 mins by luminometric analysis; assay type: functional, K-12 substr. MG1655
Escherichia coli [25] = experiment: Antibacterial activity against Escherichia coli MG1655 harboring pColD-lux assessed as maximum induction factor at 10^-6 M after 120 mins by luminometric analysis; assay type: functional, K-12 substr. MG1655
[26] = Activation of quorum sensing system luxR in Escherichia coli MG1655 harboring pVFR1-lux assessed as maximum induction factor at 10^-6 M after 120 mins by luminometric analysis; conditions: Escherichia coli str. K-12 substr. MG1655
Escherichia coli [27] = experiment: Antibacterial activity against Escherichia coli MG1655 harboring pGrpE-lux assessed as maximum induction factor at 10^-7 M after 120 mins by luminometric analysis; assay type: functional, K-12 substr. MG1655
Escherichia coli [28] = experiment: Antibacterial activity against Escherichia coli MG1655 harboring pIbpA-lux assessed as maximum induction factor at 10^-7 M after 120 mins by luminometric analysis; assay type: functional, K-12 substr. MG1655
Escherichia coli [29] = experiment: Antibacterial activity against Escherichia coli MG1655 harboring pColD-lux assessed as maximum induction factor at 10^-8 M after 120 mins by luminometric analysis; assay type: functional, K-12 substr. MG1655
Escherichia coli [30] = experiment: Antibacterial activity against Escherichia coli MG1655 harboring pGrpE-lux assessed as maximum induction factor at 10^-8 M after 120 mins by luminometric analysis; assay type: functional, K-12 substr. MG1655
Escherichia coli [31] = experiment: Antibacterial activity against Escherichia coli MG1655 harboring pIbpA-lux assessed as maximum induction factor at 10^-8 M after 120 mins by luminometric analysis; assay type: functional, K-12 substr. MG1655
[32] = Activation of quorum sensing system luxR in Escherichia coli MG1655 harboring pVFR1-lux assessed as maximum induction factor at 10^-8 M after 120 mins by luminometric analysis; conditions: Escherichia coli str. K-12 substr. MG1655
Escherichia coli [33] = experiment: Antibacterial activity against Escherichia coli MG1655 harboring pSoxS-lux assessed as maximum induction factor at 10^-9 M after 120 mins by luminometric analysis; assay type: functional, K-12 substr. MG1655
Escherichia coli [34] = experiment: Antibacterial activity against Escherichia coli MG1655 harboring pColD-lux assessed as maximum induction factor at 10^-9 M after 120 mins by luminometric analysis; assay type: functional, K-12 substr. MG1655
Escherichia coli [35] = experiment: Antibacterial activity against Escherichia coli MG1655 harboring pGrpE-lux assessed as maximum induction factor at 10^-9 M after 120 mins by luminometric analysis; assay type: functional, K-12 substr. MG1655
Escherichia coli [36] = experiment: Antibacterial activity against Escherichia coli MG1655 harboring pRecA-lux assessed as maximum induction factor at 10^-10 M after 120 mins by luminometric analysis; assay type: functional, K-12 substr. MG1655
Escherichia coli [37] = experiment: Antibacterial activity against Escherichia coli MG1655 harboring pIbpA-lux assessed as maximum induction factor at 10^-10 M after 120 mins by luminometric analysis; assay type: functional, K-12 substr. MG1655
[38] = Activation of quorum sensing system luxR in Escherichia coli MG1655 harboring pVFR1-lux assessed as maximum induction factor at 10^-10 M after 120 mins by luminometric analysis; conditions: Escherichia coli str. K-12 substr. MG1655
Escherichia coli [39] = experiment: Antibacterial activity against Escherichia coli MG1655 harboring pSoxS-lux assessed as maximum induction factor at 10^-11 M after 120 mins by luminometric analysis; assay type: functional, K-12 substr. MG1655
Escherichia coli [40] = experiment: Antibacterial activity against Escherichia coli MG1655 harboring pKatG-lux assessed as maximum induction factor at 10^-11 M after 120 mins by luminometric analysis; assay type: functional, K-12 substr. MG1655

In the case of `O=[N+]([O-])c1cc([N+](=O)[O-])c2no[n+]([O-])c2c1Sc1nc2ccccc2s1`, the Activity (Escherichia coli [1]) is reported as 1.03, the Activity (Escherichia coli [2]) is reported as 0.94 and the Activity (Escherichia coli [3]) is reported as 1.25. The Activity (Escherichia coli [4]) was 1.37, the Activity (Escherichia coli [5]) was 1.2 and the Activity (Escherichia coli [6]) was 1.07. It also gave an Activity (Escherichia coli [7]) of 1.07, an Activity [8] of 2.87 and an Activity (Vibrio sp. [9]) of 98.83. The Activity (Vibrio sp. [10]) was 99.1, the Activity (Vibrio sp. [11]) was 73.17 and the Activity (Vibrio sp. [12]) was 0. For the same compound, the Activity (Vibrio sp. [13]) was 19.14, the Activity (Vibrio sp. [14]) was 0 and the Activity (Vibrio sp. [15]) was 3.44. For the same compound, the Activity (Escherichia coli [16]) was 99.87, the Activity (Escherichia coli [17]) was 0 and the Activity (Escherichia coli [18]) was 7.28. It also gave an Activity (Escherichia coli [19]) of 0, an Activity (Escherichia coli [20]) of 2.74 and an Activity (Escherichia coli [21]) of 0.25. For the same compound, the Activity (Escherichia coli [22]) was 0.85, the Activity [23] was 0.99 and the Activity (Escherichia coli [24]) was 0.88. For the same compound, the Activity (Escherichia coli [25]) was 1.04, the Activity [26] was 3.03 and the Activity (Escherichia coli [27]) was 1.02. For the same compound, the Activity (Escherichia coli [28]) was 1.12, the Activity (Escherichia coli [29]) was 1.08 and the Activity (Escherichia coli [30]) was 1.08. For the same compound, the Activity (Escherichia coli [31]) was 1.18, the Activity [32] was 2.77 and the Activity (Escherichia coli [33]) was 1.08. It also gave an Activity (Escherichia coli [34]) of 1.05, an Activity (Escherichia coli [35]) of 1.03 and an Activity (Escherichia coli [36]) of 1. For the same compound, the Activity (Escherichia coli [37]) was 1.14, the Activity [38] was 3.59 and the Activity (Escherichia coli [39]) was 0.99. For the same compound, the Activity (Escherichia coli [40]) was 1.03.

Reference: ChEMBL document CHEMBL3407459, “Synthesis and antimicrobial activity of novel structural hybrids of benzofuroxan and benzothiazole derivatives” (2015)
